Laboratory results as given in patent US20040137023A1, “5-Cholesten-3beta, 25-diol-7-one, esters and ethers thereof, particularly for the treatment of dry skin and scalp” (L'OREAL, priority 2002, published 2004).

System: immortalized human sebocytes derived from the SZ95 line
Assay: Lipogenesis in immortalized human sebocytes in culture (Nile red fluorescence, neutral lipids)
Assay type: cell-based
Conditions: for LIPID VARIATION (relative to the control): treatment for 2 days, 0.1% DMSO, Nile red 485-540 nm
Protocol: 5-Cholesten-3β,25-diol-7-one was tested, in comparison with 7-oxocholesterol and 25-hydroxy-cholesterol, on a model of immortalized human sebocytes in culture, derived from the SZ95 line described in Zouboulis, C. C., Seltmann, H., Neitzel, H. and Orfanos, C. E., Establishment and Characterization of an Immortalized Human Sebaceous Gland Cell Line, J. Invest. Dermatol., 113, 1011-1020 (1999).
The test consisted in measuring the amount of lipids produced by the sebocytes of the line (at confluence), in the presence or absence of active agents diluted in DMSO, such that the final amount of DMSO in the culture medium is 0.1%. After treatment for 2 days, the adherent cells are treated with Nile red (1 μg/ml). The lipid content is then quantified by measuring the fluorescence of the dye (excitation/emission pair: 485-540 nm for the neutral lipids).
The tests are performed in sixplicate and the experiment is repeated four times.
In parallel, proliferation tests (MUH) and cell viability tests (LDH) make it possible to check that the effects obtained are not associated with an appreciable change in these biological parameters.

| Structure (SMILES) | increase in the lipid content of the sebum (10^−5 M, same test) [%] | LIPID VARIATION (relative to the control) (test compound 10^−4 M) | LIPID VARIATION (relative to the control) (test compound 10^−5 M) |
| --- | --- | --- | --- |
| C[C@]12CC[C@H](O)CC1=CC[C@@H]1[C@@H]2CC[C@]2(C)C(=O)CC[C@@H]12 [DHEA] | 13 | – | – |
| CC(C)CCC[C@@H](C)[C@H]1CC[C@H]2[C@@H]3C(=O)C=C4C[C@@H](O)CC[C@]4(C)[C@H]3CC[C@]12C [7-Oxocholesterol, 7-oxocholesterol] | – | +20% | – |
| C[C@H](CCCC(C)(C)O)[C@H]1CC[C@H]2[C@@H]3CC=C4C[C@@H](O)CC[C@]4(C)[C@H]3CC[C@]12C [25-OH cholesterol, 25-hydroxy-cholesterol] | – | 0% | – |
| C[C@H](CCCC(C)(C)O)C1CCC2C3C(=O)C=C4C[C@@H](O)CC[C@]4(C)C3CC[C@@]21C (stereo partly drawn) [5-Cholesten-3β,25-diol-7-one] | – | +90% | +85% |
